Experimental data published in patent publication US10570129B2 (Zoetis Services LLC, priority 2015, dated 2020).

Tests used:
Haemonchus contortus L3 = assay: microbe, parasite or virus in culture; type: cell-based; settings: Haemonchus contortus, 96 h, read-out: HcL3 Minimal Effective Concentration (MEC)
D. immitis microfilariae = assay: Dirofilaria immitis, microfilariae (DiMF) in vitro motility assay; type: cell-based; settings: Dirofilaria immitis, 72 h, read-out: DiMF minimally effective dose (MEC)

Compound	minimal effective concentration (Haemonchus contortus L3) [µM]	minimal effective concentration (D. immitis microfilariae) [µM]
COc1cc(CNC(=O)n2c3c(c4ccc(C#N)cc42)CN(C/C=C/c2ccc(Cl)c(F)c2)CC3)ccn1 [Example 59, (E)-2-(3-(4-chloro-3-fluorophenyl)allyl)-7-cyano-N-((2-methoxypyridin-4-yl)methyl)-1,2,3,4-tetrahydro-5H-pyrido[4,3-b]indole-5-carboxamide]	7.7	10
COc1cc(CNC(=O)n2c3c(c4cc(C#N)ccc42)CN(C/C=C/c2ccc(Cl)c(F)c2)CC3)ccn1 [Example 64, (E)-2-(3-(4-chloro-3-fluorophenyl)allyl)-8-cyano-N-((2-methoxypyridin-4-yl)methyl)-1,2,3,4-tetrahydro-5H-pyrido[4,3-b]indole-5-carboxamide]	0.5	3.3
N#Cc1ccc2c3c(n(C(=O)NCc4ccnc(Cl)c4)c2c1)CCN(C/C=C/c1ccc(Br)c(F)c1F)C3 [Example 14, (E)-2-(3-(4-bromo-2,3-difluorophenyl)allyl)-N-((2-chloropyridin-4-yl)methyl)-7-cyano-1,2,3,4-tetrahydro-5H-pyrido[4,3-b]indole-5-carboxamide]	0.5	> 100
N#Cc1cc2c(cc1OC(F)(F)F)c1c(n2C(=O)NCc2ccnc(Cl)c2)CCN(C/C=C/c2ccc(Cl)cc2)C1 [Example 502, (E)-2-(3-(4-chlorophenyl)allyl)-N-((2-chloropyridin-4-yl)methyl)-7-cyano-8-(trifluoromethoxy)-1,2,3,4-tetrahydro-5H-pyrido[4,3-b]indole-5-carboxamide]	18.2	> 100
CS(=O)(=O)c1ccc2c(c1)c1c(n2C(=O)NCc2ccnc(Cl)c2)CCN(C/C=C/c2ccc(Cl)cc2)C1 [Example 457, (E)-2-(3-(4-chlorophenyl)allyl)-N-((2-chloropyridin-4-yl)methyl)-8-(methylsulfonyl)-1,2,3,4-tetrahydro-5H-pyrido[4,3-b]indole-5-carboxamide]	1	10
O=C(NCc1ccnc(Cl)c1)n1c2c(c3ccc(OC(F)(F)F)cc31)CN(C/C=C/c1ccc(Cl)cc1)CC2 [Example 353, (E)-2-(3-(4-chlorophenyl)allyl)-N-((2-chloropyridin-4-yl)methyl)-7-(trifluoromethoxy)-1,2,3,4-tetrahydro-5H-pyrido[4,3-b]indole-5-carboxamide]	1	18.2
O=C(NCc1ccnc(Cl)c1)n1c2c(c3cc(Cl)ccc31)CN(C/C=C/c1ccc(Cl)c(F)c1)CC2 [Example 232, (E)-8-chloro-2-(3-(4-chloro-3-fluorophenyl)allyl)-N-((2-chloropyridin-4-yl)methyl)-1,2,3,4-tetrahydro-5H-pyrido[4,3-b]indole-5-carboxamide]	1	10
O=C(NCc1ccnc(Cl)c1)n1c2c(c3cc(Cl)c(Cl)cc31)CN(C/C=C/c1ccc(Cl)cc1)CC2 [Example 280, (E)-7,8-dichloro-2-(3-(4-chlorophenyl)allyl)-N-((2-chloropyridin-4-yl)methyl)-1,2,3,4-tetrahydro-5H-pyrido[4,3-b]indole-5-carboxamide]	0.3	> 100
O=C(NCc1ccnc(Cl)c1)n1c2c(c3c(Cl)cccc31)CN(C/C=C/c1ccc(Cl)cc1)CC2 [Example 214, (E)-9-chloro-2-(3-(4-chlorophenyl)allyl)-N-((2-chloropyridin-4-yl)methyl)-1,2,3,4-tetrahydro-5H-pyrido[4,3-b]indole-5-carboxamide]	0.5	18.2
CSc1ccc2c(c1)c1c(n2C(=O)NCc2ccnc(Cl)c2)CCN(C/C=C/c2ccc(Cl)c(F)c2)C1 [Example 445, (E)-2-(3-(4-chloro-3-fluorophenyl)allyl)-N-((2-chloropyridin-4-yl)methyl)-8-(methylthio)-1,2,3,4-tetrahydro-5H-pyrido[4,3-b]indole-5-carboxamide]	0.5	33
